According to paper PMC6350207 (Drug Metabolism Letters, 2018):

Tests used:
[1] = in humans; cited from earlier work
[2] = system: recombinant UGT enzymes; test: Reaction phenotyping with recombinant UGT Supersomes; assay type: in vitro ADME, human; conditions: substrate 20 µM, UGT 0.2 mg/mL, 2 hours

Row | Structure (SMILES) | Share of drug metabolized to its corresponding glucuronide [1] | Metabolism to the corresponding glucuronide by recombinant UGT enzymes [2]
1 | CCCC(CCC)C(=O)O [valproic acid] | 50% | –
2 | CC(C)Cc1ccc(CC(=O)O)cc1 [Ibufenac] | – | none of the recombinant UGT enzymes studied in the present investigation were found to metabolize ibufenac
